Test results taken from patent publication US12458695B2, “Dosing regimens and related compositions and methods” (Apellis Pharmaceuticals, Inc., priority 2017, dated 2025).

Test system: complement activation
Assay: not given
Conditions: relative to compstatin amidated at the C-terminus; published data; cited from earlier work
For “Ac-ICV(1-Nal)QDWGAHRCT-COOH [Ac V4(1-Nal)/H9A-OH]”, the Activity over compstatin is listed as 30xmore.
In the case of “Ac-ICV(2-Igl)QDWGAHRCT-CONH2 [Ac-V42Igl/H9A]”, the Activity over compstatin is given as 39xmore.
In the case of “Ac-ICV(2-Igl)QDWGAHRCT-COOH [Ac-V42Igl/H9A-OH]”, the Activity over compstatin is given as 37xmore.
In the case of “Ac-ICV(2-Nal)QDWGAHRCT-CONH2 [Ac-V4(2-Nal)/H9A]”, the Activity over compstatin is given as 99xmore.
For “Ac-ICV(2-Nal)QDWGAHRCT-COOH [Ac V4(2-Nal)/H9A-OH]”, the Activity over compstatin is given as 38xmore.
For “Ac-ICV(5-methyl-W)QDWGAHRCT-CONH2 [Ac-V4(5-MeW)/H9A]”, the Activity over compstatin is given as 67xmore.
For “Ac-ICV(5fW)QDWGAHRCT-CONH2 [Ac-V4(5fW)/H9A]”, the Activity over compstatin is given as 31xmore.
For “Ac-ICV(Bpa)QDWGAHRCT-CONH2 [Ac-V4(Bpa)/H9A]”, the Activity over compstatin is given as 86xmore.
For “Ac-ICV(Bpa)QDWGAHRCT-COOH [Ac-V4(Bpa)/H9A-OH]”, the Activity over compstatin is listed as 49xmore.
In the case of “Ac-ICV(Bta)QDWGAHRCT-CONH2 [Ac-V4(Bta)/H9A]”, the Activity over compstatin is given as 64xmore.
In the case of “Ac-ICV(Bta)QDWGAHRCT-COOH [Ac-V4(Bta)/H9A-OH]”, the Activity over compstatin is listed as 65xmore.
In the case of “Ac-ICVDhtQDWGAHRCT-COOH [Ac-V4Dht/H9A-OH]”, the Activity over compstatin is listed as 5xmore.
For Ac-ICVVQDWGHHRCT-CONH2 [Ac-compstatin], the Activity over compstatin is given as 3xmore.
In the case of Ac-ICVWQDWGAHRCT-CONH2 [Ac-V4W/H9A], the Activity over compstatin is given as 45xmore.
For “Ac-ICVWQDWGAHRCdT-COOH [Ac-V4W/H9A/T13dT-OH]”, the Activity over compstatin is listed as 55xmore.
In the case of Ac-ICVYQDWGAHRCT-CONH2 [Ac-V4Y/H9A], the Activity over compstatin is listed as 14xmore.
In the case of “H-GICV(6fW)QD(6fW)GAHRCTN-COOH (GICVXQDXGAHRCTN; not fully specified; 6-fluoro-Trp at V4 and W7; SITE 1 N-term H; MOD_RES 5 6-fluoro-L-tryptophan; MOD_RES 8 6-fluoro-L-tryptophan; SITE 15 C-term COOH) [+G/V4(6fW)/W7(6fW)H9A+N-OH]”, the Activity over compstatin is given as 126xmore.

Test system: alternative pathway-mediated erythrocyte lysis
Assay: not given
Conditions: alternative pathway-mediated erythrocyte lysis assay (WO2004/026328); cited from earlier work
In the case of `CC[C@H](C)[C@H](N)C(=O)N[C@H]1CSSC[C@@H](C(=O)N[C@H](C(N)=O)[C@@H](C)O)NC(=O)[C@H](CCCN=C(N)N)NC(=O)[C@H](Cc2cnc[nH]2)NC(=O)[C@H](Cc2cnc[nH]2)NC(=O)CNC(=O)[C@H](Cc2c[nH]c3ccccc23)NC(=O)[C@H](CC(=O)O)NC(=O)[C@H](CCC(N)=O)NC(=O)[C@H](C(C)C)NC(=O)[C@H](C(C)C)NC1=O` [Compstatin], the IC50 is given as 12 µM.

Test system: not listed separately
Assay: Inhalation studies, single dose and 14 day repeated dose
Conditions: cynomolgus monkey, in vivo, inhaled or intranasal; 14 day repeated dose; read-out: highest inhaled dose tested without drug-related findings
Protocol: Inhalation studies of single dose or repeated dosing were conducted in dog and cynomolgus monkey. […] These doses were 25 mg/kg/d in a 7 day repeated dose study in the dog, 80 mg/kg in a single dose study in the monkey, and 30 mg/kg/day in a 14 day repeated dose in the monkey.
Compound `CC[C@H](C)[C@H](NC(C)=O)C(=O)N[C@H]1CSSC[C@@H](C(=O)N[C@H](C(N)=O)[C@@H](C)O)NC(=O)[C@H](CCCNC(=N)N)NC(=O)[C@H](Cc2cnc[nH]2)NC(=O)[C@H](C)NC(=O)CNC(=O)[C@H](Cc2c[nH]c3ccccc23)NC(=O)[C@H](CC(=O)O)NC(=O)[C@H](CCC(N)=O)NC(=O)[C@H](Cc2cn(C)c3ccccc23)NC(=O)[C@H](C(C)C)NC1=O` [CA28] has an NOAEL at 336 h of 30 mg/kg/day.

Test system: not listed separately
Assay: Phase 1 single and multiple ascending dose trial of nebulized CA28 in healthy volunteers
Assay type: in vivo, human
Conditions: 30 mg/day inhaled; after 10 days of treatment
Protocol: In the single ascending dose part of the trial, 16 subjects were enrolled in four cohorts of four subjects each.
Four subjects were enrolled in the first cohort of the multiple ascending dose part of the trial. These subjects were to receive 14 consecutive days of treatment with a 60 mg/day dose of the drug. […] The trial was paused and subsequently resumed, with subjects receiving 30 mg/day. […] The trial was then terminated.
Both subjects responded within hours to first-line antibiotic treatment, which is indicative of bacterial pathogenesis. In this trial, subjects were vaccinated against Neisseria meningitides and closely monitored for signs of infections. While the bacterial cultures were all negative, it is believed that Haemophilus influenzae or Streptococcus pneumoniae might have been implicated in the episodes of fever that were observed because C3 deficient individuals are known to be at increased risk of infection with Neisseria meningitidis, Haemophilus influenzae and Streptococcus pneumoniae. Vaccines against these three pathogens are available, and it is believed that the risk of infection can be addressed by vaccination, potentially with addition of prophylactic antibiotics (e.g., penicillin V).
In the case of `CC[C@H](C)[C@H](NC(C)=O)C(=O)N[C@H]1CSSC[C@@H](C(=O)N[C@H](C(N)=O)[C@@H](C)O)NC(=O)[C@H](CCCNC(=N)N)NC(=O)[C@H](Cc2cnc[nH]2)NC(=O)[C@H](C)NC(=O)CNC(=O)[C@H](Cc2c[nH]c3ccccc23)NC(=O)[C@H](CC(=O)O)NC(=O)[C@H](CCC(N)=O)NC(=O)[C@H](Cc2cn(C)c3ccccc23)NC(=O)[C@H](C(C)C)NC1=O` [CA28], the “adverse event possibly related to pharmacology” value is reported as “Another subject developed signs and symptoms consistent with a potential bacterial infection”.

Same assay, conditions: 60 mg/day inhaled; following nine days of treatment
For `CC[C@H](C)[C@H](NC(C)=O)C(=O)N[C@H]1CSSC[C@@H](C(=O)N[C@H](C(N)=O)[C@@H](C)O)NC(=O)[C@H](CCCNC(=N)N)NC(=O)[C@H](Cc2cnc[nH]2)NC(=O)[C@H](C)NC(=O)CNC(=O)[C@H](Cc2c[nH]c3ccccc23)NC(=O)[C@H](CC(=O)O)NC(=O)[C@H](CCC(N)=O)NC(=O)[C@H](Cc2cn(C)c3ccccc23)NC(=O)[C@H](C(C)C)NC1=O` [CA28], the “adverse event possibly related to pharmacology” value was “one subject developed signs and symptoms consistent with a potential bacterial infection”.

Same assay, conditions: single inhaled dose 20, 60, 150 or 350 mg
In the case of `CC[C@H](C)[C@H](NC(C)=O)C(=O)N[C@H]1CSSC[C@@H](C(=O)N[C@H](C(N)=O)[C@@H](C)O)NC(=O)[C@H](CCCNC(=N)N)NC(=O)[C@H](Cc2cnc[nH]2)NC(=O)[C@H](C)NC(=O)CNC(=O)[C@H](Cc2c[nH]c3ccccc23)NC(=O)[C@H](CC(=O)O)NC(=O)[C@H](CCC(N)=O)NC(=O)[C@H](Cc2cn(C)c3ccccc23)NC(=O)[C@H](C(C)C)NC1=O` [CA28], the safety and tolerability is reported as “well tolerated and no serious adverse events were reported”.
